Tests used:
Experiment in all cases: split-luciferase competition binding
RPS6KA5 KD1 (human) = RPS6KA5 KD1 (human) (UniProt O75582); conditions: compound 10.0 µM
PRKCD (human) = PRKCD (human) (UniProt Q05655); conditions: compound 10.0 µM
PDPK1 (human) = PDPK1 (human) (UniProt O15530); conditions: compound 10.0 µM
AKT3 (human) = AKT3 (human) (UniProt Q9Y243); conditions: compound 10.0 µM
PRKCE (human) = PRKCE (human) (UniProt Q02156); conditions: compound 10.0 µM
SGK2 (human) = SGK2 (human) (UniProt Q9HBY8); conditions: compound 10.0 µM
PRKCI (human) = PRKCI (human) (UniProt P41743); conditions: compound 10.0 µM
AURKC (human) = AURKC (human) (UniProt Q9UQB9); conditions: compound 10.0 µM
RPS6KA3 KD1 (human) = RPS6KA3 KD1 (human) (UniProt P51812); conditions: compound 10.0 µM
PRKACA (mouse) = conditions: compound 10.0 µM; accession and sequence are those of the human protein
RPS6KA1 KD1 (human) = RPS6KA1 KD1 (human) (UniProt Q15418); conditions: compound 10.0 µM
PRKCH (human) = PRKCH (human) (UniProt P24723); conditions: compound 10.0 µM
RPS6KA2 KD1 (human) = RPS6KA2 KD1 (human) (UniProt Q15349); conditions: compound 10.0 µM
STK32B (human) = STK32B (human) (UniProt Q9NY57); conditions: compound 10.0 µM
PKN1 (human) = PKN1 (human) (UniProt Q16512); conditions: compound 10.0 µM
SGK3 (human) = SGK3 (human) (UniProt Q96BR1); conditions: compound 10.0 µM
PRKACB (human) = PRKACB (human) (UniProt P22694); conditions: compound 10.0 µM
AURKB (human) = AURKB (human) (UniProt Q96GD4); conditions: compound 10.0 µM
AKT2 (human) = AKT2 (human) (UniProt P31751); conditions: compound 10.0 µM
RPS6KA6 KD1 (human) = RPS6KA6 KD1 (human) (UniProt Q9UK32); conditions: compound 10.0 µM
AKT1 (human) = AKT1 (human) (UniProt P31749); conditions: compound 10.0 µM
AURKA (human) = AURKA (human) (UniProt O14965); conditions: compound 10.0 µM
PRKX (human) = PRKX (human) (UniProt P51817); conditions: compound 10.0 µM
RPS6KA4 KD1 (human) = RPS6KA4 KD1 (human) (UniProt O75676); conditions: compound 10.0 µM
PRKCQ (human) = PRKCQ (human) (UniProt Q04759); conditions: compound 10.0 µM
DMPK (human) = DMPK (human) (UniProt Q09013); conditions: compound 10.0 µM
PRKCG (human) = PRKCG (human) (UniProt P05129); conditions: compound 10.0 µM

PDPK1 (human), sequence (O15530 whole entry, looked up): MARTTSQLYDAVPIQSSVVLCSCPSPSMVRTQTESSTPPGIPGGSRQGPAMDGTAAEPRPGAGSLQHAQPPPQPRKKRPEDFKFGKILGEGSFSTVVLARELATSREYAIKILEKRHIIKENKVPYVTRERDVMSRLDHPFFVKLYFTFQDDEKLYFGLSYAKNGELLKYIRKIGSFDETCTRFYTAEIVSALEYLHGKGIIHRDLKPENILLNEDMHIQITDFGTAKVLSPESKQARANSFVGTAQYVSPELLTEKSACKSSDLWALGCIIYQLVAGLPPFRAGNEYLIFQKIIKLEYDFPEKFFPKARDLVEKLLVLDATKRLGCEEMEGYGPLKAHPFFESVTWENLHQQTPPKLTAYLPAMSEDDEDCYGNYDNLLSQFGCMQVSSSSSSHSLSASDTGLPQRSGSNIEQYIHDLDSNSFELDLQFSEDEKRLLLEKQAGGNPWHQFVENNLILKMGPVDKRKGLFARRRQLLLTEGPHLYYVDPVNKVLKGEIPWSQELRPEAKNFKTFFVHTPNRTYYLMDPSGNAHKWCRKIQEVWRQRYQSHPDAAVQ
RPS6KA3 KD1 (human), sequence (P51812 whole entry, looked up): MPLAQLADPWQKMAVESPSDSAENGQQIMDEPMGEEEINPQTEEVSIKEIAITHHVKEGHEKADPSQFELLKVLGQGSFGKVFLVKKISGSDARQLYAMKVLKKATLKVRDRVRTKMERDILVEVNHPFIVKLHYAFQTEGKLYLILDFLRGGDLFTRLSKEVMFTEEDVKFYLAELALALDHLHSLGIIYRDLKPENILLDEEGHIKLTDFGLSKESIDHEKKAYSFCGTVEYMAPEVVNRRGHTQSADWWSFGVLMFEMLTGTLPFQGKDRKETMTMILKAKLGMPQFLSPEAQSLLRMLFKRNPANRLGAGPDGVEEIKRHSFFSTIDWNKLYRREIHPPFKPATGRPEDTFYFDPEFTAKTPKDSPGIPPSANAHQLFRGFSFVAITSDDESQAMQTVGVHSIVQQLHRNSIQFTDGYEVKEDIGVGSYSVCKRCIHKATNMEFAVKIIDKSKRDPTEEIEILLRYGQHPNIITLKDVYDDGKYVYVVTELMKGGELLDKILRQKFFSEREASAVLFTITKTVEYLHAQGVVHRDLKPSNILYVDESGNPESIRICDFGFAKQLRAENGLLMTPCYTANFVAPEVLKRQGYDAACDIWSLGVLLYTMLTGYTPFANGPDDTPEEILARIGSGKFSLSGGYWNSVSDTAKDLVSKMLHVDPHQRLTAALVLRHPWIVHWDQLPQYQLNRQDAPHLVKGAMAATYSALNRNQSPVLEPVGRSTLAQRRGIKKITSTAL
RPS6KA1 KD1 (human), sequence (Q15418 whole entry, looked up): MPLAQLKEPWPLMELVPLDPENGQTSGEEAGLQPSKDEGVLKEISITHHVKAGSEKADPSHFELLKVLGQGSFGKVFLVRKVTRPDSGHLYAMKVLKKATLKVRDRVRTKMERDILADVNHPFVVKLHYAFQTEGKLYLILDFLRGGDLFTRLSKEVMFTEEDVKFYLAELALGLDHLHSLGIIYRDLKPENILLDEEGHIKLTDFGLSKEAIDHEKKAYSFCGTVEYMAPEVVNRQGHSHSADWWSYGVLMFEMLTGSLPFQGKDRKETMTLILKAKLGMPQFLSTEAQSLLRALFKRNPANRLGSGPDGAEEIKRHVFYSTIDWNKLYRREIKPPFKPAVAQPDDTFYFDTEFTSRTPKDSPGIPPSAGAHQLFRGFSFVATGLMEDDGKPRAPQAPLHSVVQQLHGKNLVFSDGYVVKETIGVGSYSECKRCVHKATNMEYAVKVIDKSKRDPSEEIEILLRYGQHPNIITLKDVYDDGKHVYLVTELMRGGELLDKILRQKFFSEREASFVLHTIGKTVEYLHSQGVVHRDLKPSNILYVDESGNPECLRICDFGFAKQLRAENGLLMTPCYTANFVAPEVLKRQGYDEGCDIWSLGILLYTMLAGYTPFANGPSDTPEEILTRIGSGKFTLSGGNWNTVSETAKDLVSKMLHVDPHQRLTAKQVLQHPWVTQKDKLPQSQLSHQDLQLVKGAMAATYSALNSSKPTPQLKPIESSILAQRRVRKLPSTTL
PRKCQ (human), sequence (Q04759 whole entry, looked up): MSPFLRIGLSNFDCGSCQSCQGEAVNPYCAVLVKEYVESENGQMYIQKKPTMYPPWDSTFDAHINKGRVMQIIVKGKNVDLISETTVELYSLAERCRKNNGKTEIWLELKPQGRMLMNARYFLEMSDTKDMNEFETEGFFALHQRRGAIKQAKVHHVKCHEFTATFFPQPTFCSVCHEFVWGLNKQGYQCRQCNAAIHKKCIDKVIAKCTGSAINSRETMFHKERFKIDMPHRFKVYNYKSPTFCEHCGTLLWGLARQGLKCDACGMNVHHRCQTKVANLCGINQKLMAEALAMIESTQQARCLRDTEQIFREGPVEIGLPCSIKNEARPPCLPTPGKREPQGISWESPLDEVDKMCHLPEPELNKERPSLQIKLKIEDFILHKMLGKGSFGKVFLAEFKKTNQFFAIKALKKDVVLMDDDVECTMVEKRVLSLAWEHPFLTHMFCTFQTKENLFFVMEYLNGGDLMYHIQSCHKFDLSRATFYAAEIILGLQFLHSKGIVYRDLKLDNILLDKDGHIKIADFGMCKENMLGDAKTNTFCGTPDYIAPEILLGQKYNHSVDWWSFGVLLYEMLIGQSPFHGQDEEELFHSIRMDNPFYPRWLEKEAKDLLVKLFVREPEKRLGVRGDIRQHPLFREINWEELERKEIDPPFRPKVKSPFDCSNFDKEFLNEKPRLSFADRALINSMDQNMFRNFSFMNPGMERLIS
PRKCI (human), sequence (P41743 whole entry, looked up): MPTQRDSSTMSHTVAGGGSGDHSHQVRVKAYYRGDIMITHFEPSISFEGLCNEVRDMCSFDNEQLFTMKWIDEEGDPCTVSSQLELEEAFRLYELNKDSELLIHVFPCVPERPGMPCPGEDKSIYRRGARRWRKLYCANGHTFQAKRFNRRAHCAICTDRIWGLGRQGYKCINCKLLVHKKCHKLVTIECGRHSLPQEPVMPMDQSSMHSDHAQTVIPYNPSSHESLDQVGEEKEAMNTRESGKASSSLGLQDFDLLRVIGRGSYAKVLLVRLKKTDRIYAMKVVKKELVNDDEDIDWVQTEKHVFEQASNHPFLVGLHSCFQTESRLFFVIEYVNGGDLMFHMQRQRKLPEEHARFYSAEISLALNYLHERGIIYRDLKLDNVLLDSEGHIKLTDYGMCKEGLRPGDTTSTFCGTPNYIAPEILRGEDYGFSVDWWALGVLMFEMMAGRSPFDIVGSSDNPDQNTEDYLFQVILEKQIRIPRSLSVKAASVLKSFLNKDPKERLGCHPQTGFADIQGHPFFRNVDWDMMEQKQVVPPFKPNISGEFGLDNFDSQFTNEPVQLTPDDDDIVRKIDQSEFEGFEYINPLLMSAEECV
PKN1 (human), sequence (Q16512 whole entry, looked up): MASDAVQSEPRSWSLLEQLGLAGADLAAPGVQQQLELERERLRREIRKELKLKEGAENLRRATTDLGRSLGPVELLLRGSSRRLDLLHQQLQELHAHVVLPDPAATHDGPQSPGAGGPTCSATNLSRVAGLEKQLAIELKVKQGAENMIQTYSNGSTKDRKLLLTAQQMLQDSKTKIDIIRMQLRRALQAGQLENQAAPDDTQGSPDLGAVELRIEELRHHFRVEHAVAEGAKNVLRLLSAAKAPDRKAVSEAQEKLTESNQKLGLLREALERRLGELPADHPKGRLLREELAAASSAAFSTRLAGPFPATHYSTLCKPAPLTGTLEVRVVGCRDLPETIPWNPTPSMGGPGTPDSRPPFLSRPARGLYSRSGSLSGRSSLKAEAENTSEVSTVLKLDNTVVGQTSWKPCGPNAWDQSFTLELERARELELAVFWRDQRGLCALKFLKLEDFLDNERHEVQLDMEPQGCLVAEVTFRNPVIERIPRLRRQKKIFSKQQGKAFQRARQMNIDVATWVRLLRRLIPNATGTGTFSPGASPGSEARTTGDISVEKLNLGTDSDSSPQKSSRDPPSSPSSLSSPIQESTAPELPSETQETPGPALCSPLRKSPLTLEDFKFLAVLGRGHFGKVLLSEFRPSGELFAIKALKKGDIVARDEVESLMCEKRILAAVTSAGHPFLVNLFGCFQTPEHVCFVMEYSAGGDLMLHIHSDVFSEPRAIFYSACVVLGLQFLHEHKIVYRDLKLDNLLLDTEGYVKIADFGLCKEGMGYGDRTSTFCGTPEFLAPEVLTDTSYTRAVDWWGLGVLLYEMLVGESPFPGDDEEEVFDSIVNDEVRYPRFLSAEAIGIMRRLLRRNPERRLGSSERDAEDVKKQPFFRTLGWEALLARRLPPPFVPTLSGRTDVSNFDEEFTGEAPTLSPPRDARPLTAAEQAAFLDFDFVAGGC

| Compound | inhibition (PRKCD (human)) [%] | inhibition (PDPK1 (human)) [%] | inhibition (AKT3 (human)) [%] | inhibition (PRKCE (human)) [%] | inhibition (SGK2 (human)) [%] | inhibition (PRKCI (human)) [%] | inhibition (AURKC (human)) [%] | inhibition (RPS6KA1 KD1 (human)) [%] | inhibition (PRKCH (human)) [%] | inhibition (RPS6KA2 KD1 (human)) [%] | inhibition (STK32B (human)) [%] | inhibition (PKN1 (human)) [%] | inhibition (SGK3 (human)) [%] | inhibition (AURKB (human)) [%] | inhibition (RPS6KA6 KD1 (human)) [%] | inhibition (AKT1 (human)) [%] | inhibition (AURKA (human)) [%] | inhibition (PRKX (human)) [%] | inhibition (RPS6KA4 KD1 (human)) [%] | inhibition (PRKCQ (human)) [%] | other results |
| --- | --- | --- | --- | --- | --- | --- | --- | --- | --- | --- | --- | --- | --- | --- | --- | --- | --- | --- | --- | --- | --- |
| O=C1NC(=O)c2cc(Nc3ccc(F)cc3)c(Nc3ccc(F)cc3)cc21 | 0 | 10 | 0 | 0 | 0 | 0 | 0 | 0 | 1 | 3 | 19 | 0 | 12 | 3 | 0 | 15 | 0 | 8 | 0 | 12 | inhibition (RPS6KA5 KD1 (human)): 0%; inhibition (RPS6KA3 KD1 (human)): 0%; inhibition (PRKACA (mouse)): 13%; inhibition (PRKACB (human)): 8%; inhibition (AKT2 (human)): 0% |
| COc1cc2c(Nc3ccc(NC(=O)c4ccccc4)cc3)ncnc2cc1OCCCN1CCOCC1 | 0 | 0 | 0 | 0 | 0 | 0 | 66 | 5 | 0 | 2 | 1 | 2 | 0 | 55 | 3 | 9 | 13 | 7 | 0 | 0 | inhibition (RPS6KA5 KD1 (human)): 0%; inhibition (DMPK (human)): 9%; inhibition (PRKCG (human)): 6%; inhibition (PRKACA (mouse)): 7%; inhibition (PRKACB (human)): 0%; inhibition (AKT2 (human)): 0% |
| Cn1cc(C2=C(c3cn(CCCSC(=N)N)c4ccccc34)C(=O)NC2=O)c2ccccc21 | 91 | 2 | 78 | 71 | 34 | 63 | 10 | 71 | 81 | 89 | 63 | 36 | 65 | 13 | 80 | 62 | 2 | 32 | 56 | 93 | inhibition (RPS6KA5 KD1 (human)): 64%; inhibition (DMPK (human)): 76%; inhibition (RPS6KA3 KD1 (human)): 87%; inhibition (PRKACA (mouse)): 62%; inhibition (PRKACB (human)): 73%; inhibition (AKT2 (human)): 28% |
| Cc1ccc(-c2nn(C(C)(C)C)c3ncnc(N)c23)cc1 | 0 | 0 | 0 | 8 | 0 | 0 | 0 | 27 | 8 | 1 | 58 | 0 | 0 | 0 | 14 | 2 | 0 | 0 | 1 | 0 | inhibition (RPS6KA5 KD1 (human)): 0%; inhibition (DMPK (human)): 28%; inhibition (PRKCG (human)): 0%; inhibition (RPS6KA3 KD1 (human)): 8%; inhibition (PRKACB (human)): 0%; inhibition (AKT2 (human)): 0% |
| CCN(CC)CCNC(=O)c1c(C)[nH]c(/C=C2\C(=O)Nc3ccc(F)cc32)c1C | 0 | 10 | 26 | 22 | 44 | 22 | 30 | 86 | 39 | 69 | 0 | 0 | 42 | 22 | 69 | 28 | 0 | 25 | 86 | 7 | inhibition (DMPK (human)): 0%; inhibition (PRKCG (human)): 0%; inhibition (RPS6KA3 KD1 (human)): 59%; inhibition (PRKACA (mouse)): 2%; inhibition (PRKACB (human)): 0% |
| O=S(=O)(c1cccc2cnccc12)N1CCCNCC1 | 1 | 0 | 0 | 0 | 1 | 38 | 6 | 2 | 17 | 0 | 0 | 0 | 0 | 0 | 0 | 0 | 0 | 77 | 0 | 1 | inhibition (RPS6KA5 KD1 (human)): 0%; inhibition (DMPK (human)): 0%; inhibition (PRKCG (human)): 0%; inhibition (AKT2 (human)): 0% |
